Reference: PubChem BioAssay AID1996
≈ marks a conversion by molar mass, not a printed value.

details: buffer; pH 7.4; 200.0 µM

solubility kinetic [µg/mL] | Compound
9.8 (≈ 39.5 µM) | Cc1cccc(NCc2cccc3ccccc23)n1
45 (≈ 138 µM) | COC(=O)c1ccc(OCC(=O)N2CCCc3ccccc32)cc1
40.3 (≈ 147 µM) | O=C1CSC(c2ccccc2)N1c1ccccc1F (stereo not given)
38.2 (≈ 149 µM) | Clc1ncn(CCOc2ccccc2)c1Cl
10.1 (≈ 36.3 µM) | COc1ccc(/C=C2/N=C(SC)NC2=O)cc1OC
45.8 (≈ 134 µM) | COc1ccc(CNC(=O)C2CCN(C(=O)c3ccco3)CC2)cc1
49.7 (≈ 137 µM) | Cc1ccc(C(=O)NCCCNC(=O)COc2ccc(Cl)cc2)cn1
2 (≈ 6.4 µM) | C=CCOn1c(=O)c(-c2ccc(F)cc2)[n+]([O-])c2ccccc21
> 67 | COc1cc(CC(=O)OCC(=O)N2CCN(C(=O)c3ccco3)CC2)cc(OC)c1OC
35.6 (≈ 148 µM) | O=C(Nc1ccc(F)c(F)c1)C1=COCCO1
45.5 (≈ 136 µM) | Cc1cc(NC(=O)CN2CCN(c3cccc(Cl)c3)CC2)no1
37.2 (≈ 116 µM) | CC(=O)c1cccc(OCCCOc2cccc3cccnc23)c1
1.7 (≈ 4.58 µM) | COc1ccc(-c2nc3c4ccccc4ccn3c2CN2CCCCC2)cc1
< 0.6 | CCOc1ccccc1NC(=O)c1ccc2ccccc2c1
> 48.7 | COc1ccc(C(=O)NCCc2c[nH]c3ccc(OC)cc23)cc1
> 46.8 | CCCC(=O)NNC(=O)CCC(=O)Nc1ccccc1Cl
> 33.2 | CNc1nnc(-c2ccc(OC)cc2)s1
> 48.8 | Cc1ccccc1Nc1nc(N)nc(COC(=O)c2ccco2)n1
4 (≈ 11.7 µM) | CCOc1ccc(NC(=O)COC(=O)c2ccc3c(c2)OCO3)cc1
> 50.3 | O=C(Nc1cc2c(cc1Br)OCCO2)c1cccnc1
40.1 (≈ 141 µM) | O=C(NCCN1CCOCC1)Nc1cccc(Cl)c1
> 38.1 | Cc1csc(NC(=O)c2ccc(Cl)nc2)n1
> 48.1 | COc1ccc(NC(=S)NCc2ccc(F)cc2)c(OC)c1

The remaining lines, values behind:

Compound | solubility kinetic [µg/mL]
O=C(COC(=O)CN1CCSC1=O)Nc1ccc(F)cc1Cl | > 52
CC(CCc1ccccc1)NC(=O)CCc1cn(C)c2ccccc12 (stereo not given) | 6.2 (≈ 18.5 µM)
O=[N+]([O-])C(C1CCS(=O)(=O)C1)C1CCS(=O)(=O)C1 (stereo not given) | 41.8 (≈ 141 µM)
Cc1ccc(C(=O)Nc2ccc(N3CCN(C)CC3)cc2)c(Cl)c1 | > 51.6
O=C(Nc1sc2c(c1C(=O)O)CCCC2)c1ccccc1Cl | > 50.4
CC(C)CN(C(=O)CCNC(=O)c1ccc(Cl)cc1)C1CCS(=O)(=O)C1 (stereo not given) | > 60.1
c1ccc(CN2CCOCCOCCOCC2)cc1 | > 39.8
Cc1ccc(N2CC(=O)Nc3c(oc4nc(-c5ccccc5)cc(C)c34)C2=O)cc1 | < 0.3
O=[N+]([O-])c1ccc(SCc2ccco2)cc1N1CCOCC1 | 13.2 (≈ 41.2 µM)
O=[N+]([O-])c1cccc(Nc2c([N+](=O)[O-])ccc3nonc23)c1 | < 0.1
Cc1nc(N)c(CC(Br)CBr)c(Cl)n1 (stereo not given) | 49.1 (≈ 143 µM)
COc1cccc(Oc2ccc(C(F)(F)F)cc2NC(=O)C2=COCCO2)c1 | 1.5 (≈ 3.79 µM)
O=C(COC(=O)c1ccco1)Nc1ccc(Cl)cn1 | 24.8 (≈ 88.4 µM)
CN(C(=O)c1ccnn1C)C1CCCN(Cc2ccccc2F)C1 (stereo not given) | > 49.6
CN(C)Cc1c(O)ccc2occ(C(=O)c3ccc(F)cc3)c12 | > 47
CC(C)c1ccc(CNC(=O)CCc2ccccc2)cc1 | 31.2 (≈ 111 µM)
O=C(CSc1ccc(F)cc1)Nc1ccc2c(c1)C(=O)NC2=O | 31.6 (≈ 95.7 µM)
CCCCNC(=O)CN1C(=O)NC2(CCOc3ccccc32)C1=O (stereo not given) | > 49.7
CN1CCN(c2nc3ccccn3c(=O)c2C=O)CC1.Cl | 45

Compound | solubility kinetic [µg/mL]
COc1ccc(-c2csc(N3CCSCC3)n2)cc1 | 0.3 (≈ 1.03 µM)
O=C(Nc1cccc(F)c1)Nc1cccc(Cl)c1 | 2 (≈ 7.56 µM)
O=C(NCc1ccccc1)c1ccc(Cl)c(S(=O)(=O)N2CCCC2)c1 | 33.9 (≈ 89.5 µM)
Cc1ccc(C(=O)NCc2ccc3c(c2)OCO3)cc1C | 31.7 (≈ 112 µM)
CSc1ncccc1C(=O)OCC(=O)NC(C)(C)C | > 42.4
COc1cccc(C=O)c1OCCN1C(=O)c2ccccc2C1=O | 42.6 (≈ 131 µM)
O=c1c2ccccc2nc(-c2ccccc2Cl)n1-c1ccc(O)cc1 | > 52.3
O=c1cc(-c2ccccc2O)nc(-c2ccccc2)[nH]1 | 0.8 (≈ 3.03 µM)
Cc1ccc(OC(=O)c2ccncc2)c(C)c1 | 23.9 (≈ 105 µM)
CCOc1ccc(NC(=O)C2CCCN(S(C)(=O)=O)C2)cc1 (stereo not given) | 4.1 (≈ 12.6 µM)
Cc1cccc(C(CC(=O)N2CCCCC2)c2ccccc2)c1O (stereo not given) | 0.8 (≈ 2.47 µM)
O=C(CSc1nc2ccccc2c(=O)n1CCCN1CCOCC1)Nc1ccc(F)c(Cl)c1 | 18.5 (≈ 37.7 µM)
COc1ccc(C(C)NC(=O)Cc2cccs2)cc1OC (stereo not given) | > 45.8
COc1ccccc1NC(=O)CCN1C(=O)c2ccccc2C1=O | > 48.7
O=C(Nc1cccc(O)c1)C1CC(c2cccc(Br)c2)=NO1 (stereo not given) | 28 (≈ 77.5 µM)
COc1ccc(N2CCN(C(=S)Nc3ccccc3)CC2)cc1 | 1.3 (≈ 3.97 µM)
Nc1nc(SCC(=O)NC2CCCC2)[nH]c(=O)c1NC(=O)c1cccs1 | 4.4 (≈ 11.2 µM)
COc1cc2ccccc2cc1C(=O)Nc1ccccc1C | < 0.6
